How the values were obtained:
ATM pCHK2 pathway = experiment: Inhibition of the ATM pCHK2 pathway; format: cell-based; conditions: compared to the (Ra) atropisomer and the unseparated compound
Microsomal clearance = format: in vitro ADME; conditions: compared to the (Ra) atropisomer and the unseparated compound
[1] = molecular target: phosphodiesterase (PDE) 2A1 (Homo sapiens, UniProt O00408); experiment: Inhibition of PDE2A1; format: biochemical; conditions: compared to the (Ra) atropisomer and the unseparated compound
Sequence of phosphodiesterase (PDE) 2A1 (O00408 1-920 isoform O00408-2): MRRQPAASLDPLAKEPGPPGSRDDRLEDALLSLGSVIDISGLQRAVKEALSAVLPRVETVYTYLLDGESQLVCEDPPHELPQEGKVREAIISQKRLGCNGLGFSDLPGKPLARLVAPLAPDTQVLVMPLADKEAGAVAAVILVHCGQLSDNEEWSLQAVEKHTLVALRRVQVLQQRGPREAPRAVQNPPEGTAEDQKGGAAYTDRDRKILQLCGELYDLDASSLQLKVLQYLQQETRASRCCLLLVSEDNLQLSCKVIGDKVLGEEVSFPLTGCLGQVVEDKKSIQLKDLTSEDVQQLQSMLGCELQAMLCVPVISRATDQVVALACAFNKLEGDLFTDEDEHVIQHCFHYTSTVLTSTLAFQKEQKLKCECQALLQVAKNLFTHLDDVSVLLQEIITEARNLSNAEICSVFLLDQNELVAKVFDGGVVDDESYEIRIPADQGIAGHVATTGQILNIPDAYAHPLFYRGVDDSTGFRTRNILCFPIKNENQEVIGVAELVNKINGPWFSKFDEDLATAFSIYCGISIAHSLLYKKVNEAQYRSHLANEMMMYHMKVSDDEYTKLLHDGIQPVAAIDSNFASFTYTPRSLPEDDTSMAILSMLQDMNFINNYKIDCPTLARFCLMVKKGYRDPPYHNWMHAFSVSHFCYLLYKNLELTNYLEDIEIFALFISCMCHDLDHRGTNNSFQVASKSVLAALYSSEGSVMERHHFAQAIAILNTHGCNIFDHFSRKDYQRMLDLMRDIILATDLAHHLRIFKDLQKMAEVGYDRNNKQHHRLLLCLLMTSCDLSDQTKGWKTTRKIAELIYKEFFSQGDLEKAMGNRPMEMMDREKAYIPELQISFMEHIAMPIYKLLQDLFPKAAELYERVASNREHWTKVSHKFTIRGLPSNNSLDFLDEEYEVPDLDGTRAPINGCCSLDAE

PDE4A1A = PDE4A1A (Homo sapiens, UniProt P27815); experiment: Inhibition of PDE4A1A; format: biochemical; conditions: compared to the (Ra) atropisomer and the unseparated compound
Sequence of PDE4A1A (P27815 1-647 isoform P27815-4): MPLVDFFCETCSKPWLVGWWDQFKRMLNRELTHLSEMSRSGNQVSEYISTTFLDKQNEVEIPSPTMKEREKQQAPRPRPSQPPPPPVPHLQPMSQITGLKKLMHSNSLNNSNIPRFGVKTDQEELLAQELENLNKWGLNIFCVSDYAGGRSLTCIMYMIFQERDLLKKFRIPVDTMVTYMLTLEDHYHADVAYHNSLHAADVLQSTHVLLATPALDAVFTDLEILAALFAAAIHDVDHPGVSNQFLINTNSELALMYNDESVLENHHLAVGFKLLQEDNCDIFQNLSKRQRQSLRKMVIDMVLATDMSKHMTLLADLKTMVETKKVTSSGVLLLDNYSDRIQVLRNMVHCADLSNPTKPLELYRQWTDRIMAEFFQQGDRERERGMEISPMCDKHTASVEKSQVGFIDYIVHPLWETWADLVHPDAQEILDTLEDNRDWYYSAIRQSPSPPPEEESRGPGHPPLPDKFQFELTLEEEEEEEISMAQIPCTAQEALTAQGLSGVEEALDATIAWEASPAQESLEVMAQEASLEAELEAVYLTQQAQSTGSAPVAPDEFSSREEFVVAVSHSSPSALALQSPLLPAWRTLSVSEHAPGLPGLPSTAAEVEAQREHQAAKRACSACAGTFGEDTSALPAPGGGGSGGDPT

PDE4D2 = PDE4D2 (Homo sapiens, UniProt Q08499); experiment: Inhibition of PDE4D2; format: biochemical; conditions: compared to the (Ra) atropisomer and the unseparated compound
Sequence of PDE4D2 (Q08499 303-809 limits assumed): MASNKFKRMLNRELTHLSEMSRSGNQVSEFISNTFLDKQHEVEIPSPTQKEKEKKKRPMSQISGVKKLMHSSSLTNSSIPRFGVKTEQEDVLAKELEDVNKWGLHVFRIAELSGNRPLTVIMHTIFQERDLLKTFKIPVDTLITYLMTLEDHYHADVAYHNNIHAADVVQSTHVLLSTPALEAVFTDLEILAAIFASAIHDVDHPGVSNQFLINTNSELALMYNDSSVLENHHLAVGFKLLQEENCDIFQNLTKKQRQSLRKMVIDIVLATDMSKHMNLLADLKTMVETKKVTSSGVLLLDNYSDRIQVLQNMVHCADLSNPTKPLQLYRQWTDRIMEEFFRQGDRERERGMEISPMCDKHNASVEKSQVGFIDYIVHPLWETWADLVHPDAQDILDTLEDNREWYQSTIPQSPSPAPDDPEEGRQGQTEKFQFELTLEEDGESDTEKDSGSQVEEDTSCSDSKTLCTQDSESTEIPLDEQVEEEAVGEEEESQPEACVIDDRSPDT

[2] = Selectivity compared to the other atropisomer and the mixture; conditions: compared to the (Ra) atropisomer and the unseparated compound
[3] = Particle size distribution by laser diffraction (Malvern Mastersizer 2000); format: physicochemical; conditions: no unit in Table 4; d values in micrometers, volume distribution
Protocol: The particle size distribution of 8-(1,3-Dimethyl-1H-pyrazol-4-yl)-1-(Sa)-(3-fluoro-5-methoxy-pyridin-4-yl)-7-methoxy-3-methyl-1,3-dihydro-imidazo[4,5-c]quinolin-2-one is measured by laser diffraction on a Malvern Mastersizer 2000 (wet method using Hydro 2000S; sample amount of 100 mg dispersed in 5 ml silicone oil; stirrer speed 2000 rpm, no sonication, measuring time of 7.5 s; obscuration of 10-15%). The d values refer to the particle size distribution in micrometers […] whereby the dl 0 value refers to the particle diameter in micrometers at which 10 percent of the volume distribution of the particles are smaller than such value, the d50 value refers to the particle diameter in micrometers at which 50 percent of the volume distribution of the particles are smaller than such value and the d90 value refers to the particle diameter in micrometers at which 90 percent of the volume distribution of the particles are smaller than such value.

[4] = Thermodynamic stability of anhydrous polymorphic forms; format: physicochemical; conditions: among anhydrous Forms A1, A2, A3

| Microsomal clearance values (Microsomal clearance) | Inhibition of phosphodiesterase (PDE) 2A1 [1] | Inhibition of PDE4A1A (PDE4A1A) | Inhibition of PDE4D2 (PDE4D2) | Dv10 [3] [µm] | Dv50 [3] [µm] | Dv90 [3] [µm] | Structure (SMILES) | Inhibition of the ATM pCHK2 pathway (ATM pCHK2 pathway) | Selectivity [2] | Thermodynamic stability of the solid form [4] |
| --- | --- | --- | --- | --- | --- | --- | --- | --- | --- | --- |
| best microsomal clearance values | lowest inhibition | lowest inhibition | lowest inhibition |  |  |  | COc1cc2ncc3c(c2cc1-c1cn(C)nc1C)n(-c1c(F)cncc1OC)c(=O)n3C (atropisomer, axis not shown; (Sa)) [Compound 1, 8-(1,3-Dimethyl-1H-pyrazol-4-yl)-1-(Sa)-(3-fluoro-5-methoxy-pyridin-4-yl)-7-methoxy-3-methyl-1,3-dihydro-imidazo[4,5-c]quinolin-2-one] | at lower concentrations | better selectivity |  |
|  |  |  |  | 9 | 63 | 599 | COc1cc2ncc3c(c2cc1-c1cn(C)nc1C)n(-c1c(F)cncc1OC)c(=O)n3C (atropisomer, axis not shown; (Sa)) [Compound 1 Anhydrous Form A2, 8-(1,3-Dimethyl-1H-pyrazol-4-yl)-1-(Sa)-(3-fluoro-5-methoxy-pyridin-4-yl)-7-methoxy-3-methyl-1,3-dihydro-imidazo[4,5-c]quinolin-2-one] |  |  | thermodynamically most stable anhydrous form |
|  |  |  |  | 19 | 64 | 202 | COc1cc2ncc3c(c2cc1-c1cn(C)nc1C)n(-c1c(F)cncc1OC)c(=O)n3C (atropisomer, axis not shown; (Sa)) [Compound 1 Anhydrous Form A2 OPT, 8-(1,3-Dimethyl-1H-pyrazol-4-yl)-1-(Sa)-(3-fluoro-5-methoxy-pyridin-4-yl)-7-methoxy-3-methyl-1,3-dihydro-imidazo[4,5-c]quinolin-2-one] |  |  |  |

— patent US20230330027A1, “PHARMACEUTICAL PREPARATION” (MERCK PATENT GMBH, priority 2020, published 2023)
